Like-named read-outs stand apart in the source and are kept apart here.
Assays:
OPM2 cells = assay: cells; assay type: cell-based, human; details: for IC50: Homo sapiens
Description: The effect of the stabilizing mutations on cell proliferation was also measured.

IL-2 = IL-2 secretion from anti-CD3 antibody-stimulated healthy donor PBMCs; assay type: cell-based, human
Description: The immunomodulatory activity of Compound 2 on T cell receptor (TCR)-activated healthy PBMCs was assessed.
The effect of Compound 2 in combination with different concentrations of dexamethasone on the ability of PBMCs to produce IL-2 was explored. […]

[1] = system: multiple myeloma cell lines with acquired resistance; assay: Proliferation (CellTiter-Glo, 5 days) of parental and lenalidomide- or pomalidomide-resistant MM cell lines; assay type: cell-based, human
Description: Cell lines were treated with (FIG. 11A) Pomalidomide, or (FIG. 11B) Compound 2 for 5 days and IC50 values were assessed using an ATP determination assay (CellTiter-Glo). Percent control was calculated by subtracting the background and normalizing to the DMSO control (100% of control).
Cells were treated for 5 days and then assessed using an ATP determination assay (CellTiter-Glo). The percentage of control was calculated by subtracting the background and normalizing to the DMSO control (100% of control).
Proliferation was assessed using the CellTitre-Glo® assay.

[2] = system: relapsed and refractory multiple myeloma; assay: Phase 1 study, response to treatment (IMWG criteria); assay type: in vivo, human; details: subjects with >80% decrease in sBCMA or sFLC
Ikaros and Aiolos [3] = assay: Immunoblot of Ikaros and Aiolos in H929-1051 cells; assay type: cell-based, human; details: within 4 hours
Description: FIG. 6A and FIG. 6B illustrate that Compound 2 degraded Ikaros and Aiolos in a concentration dependent manner, which induced apoptosis and cell cycle arrest in pomalidomide-resistant multiple myeloma cells. Shown is immunoblot analysis of pomalidomide-resistant MM cells (H929-1051) incubated with Compound 2 for (FIG. 6A) 4 hours or (FIG. 6B) 72 hours.
Incubation with concentrations as low as 1 nM of Compound 2 promoted the robust degradation of Ikaros and Aiolos within 4 hours (FIG. 6A).

Aiolos, Ikaros, ZFP91 = assay: Immunoblot of OPM2 cells after five-day incubation; assay type: cell-based, human; details: Compound 2 alone
Description: FIG. 4 illustrates that Compound 2 induced the degradation of Ikaros, Aiolos, ZFP91, c-Myc, and IRF4, which correlates with induction of the apoptotic protein cleaved-Caspase 3, and the cell cycle arrest protein p21. Immunoblot analysis of OPM2 parental cells incubated with Compound 2 at the indicated concentrations is shown. Actin is a loading control.
Ikaros and Aiolos degradation was followed by reduction in the levels of two additional and highly critical transcription factors, c-Myc and IRF4 (FIG. 4). The loss or reduction of these factors was associated with an increase of the cyclin-dependent kinase inhibitor p21 and induction of apoptosis, as measured by cleaved caspase-3 (FIG. 4).

NCI-H929 cells = assay: PBMC-induced MM cell lysis, PBMCs and MM cells both pretreated, versus single MM culture (NCI-H929); assay type: cell-based, human; details: PBMCs and MM cells both preincubated 72 hours
Description: Ninety-six-well dishes were pre-coated with anti-CD3 antibody (OKT3, 3 μg/mL) and incubated at 4° C. overnight before the start of the experiment. Frozen PBMC donor cells were thawed at 37° C. for 2 minutes in RPMI medium with 10% FBS and cell counts and viability were measured on the Vi-CELL analyzer. Peripheral blood mononuclear cells were washed and diluted to 1×10^6 cells/mL and dispensed into the compound-treated plates in a total volume of 200 μL. Cells were incubated with Compound 2 for 2 hours before being transferred onto anti-CD3-coated plates and incubated for an additional 72 hours. At the same time, MM cell lines (NCI-H929, H929-1051, OPM2, OPM2-P10) were diluted to a final concentration of 0.1×10^6 cells/mL and labeled with CellTrace CFSE according to manufacturer's instructions. Multiple myeloma cell lines were then dispensed into compound-treated plates at a total volume of 200 μL and incubated for 72 hours. After 72 hours, the PBMCs and MM cells were counted and transferred into a U-bottom 96-well plate at a final T:E ratio of 1:5. After 24 hours coculture, specific target cell lysis by PBMC mediated apoptosis was measured using Annexin V-AF647 and 7-AAD according to manufacturer's instructions and samples were run on the Attune NxT Cytometer. […]

Ikaros and Aiolos [4] = assay: Immunoblot of Ikaros and Aiolos in DF15R and DF15R-human CRBN WT cells; assay type: cell-based; details: 0.1 μM, 4 hours
Description: Shown are Cereblon, Ikaros, and Aiolos immunoblots of extracts from DF15R and DF15R-human CRBN^WT cells that were incubated with DMSO, pomalidomide, or Compound 2 at 0.1 μM for 4 hours. Tubulin is a loading control.
To determine whether cereblon could serve as a biomarker for predicting response to Compound 2, the myeloma cell line DF15R was treated with Compound 2.

[5] = system: Aiolos, Ikaros, and ZFP91; assay: Phase 1 study, IHC of bone marrow aspirate clots; assay type: in vivo, human; details: before and during treatment (Cycle 1)
From the text: FIG. 26A-FIG. 26E illustrate that the effect of Compound 2 on biomarker expression in CD138+ plasma cells from relapsed/refractory multiple myeloma patients. (FIG. 26A) Aiolos, (FIG. 26B) Ikaros, (FIG. 26C) ZFP91, (FIG. 26D) c-Myc, and (FIG. 26E) IRF4.
Bone marrow aspirate samples were taken before and during Compound 2 treatment (Cycle 1). Clots were made from each sample and processed into formalin fixed paraffin embedded blocks. Immunohistochemistry (IHC) assays were used to evaluate the biomarker expression. IHC scores were determined based on percent and intensity of positive staining.

H929-1051 = assay: Tumor cell lysis by anti-CD3-activated, compound-treated PBMCs, co-culture with untreated H929-1051; assay type: cell-based; details: Homo sapiens, PBMC; lenalidomide-resistant H929-1051, untreated; 24-hour co-culture

SMILES: N#Cc1ccc(N2CCN(Cc3ccc(COc4cccc5c4CN([C@H]4CCC(=O)NC4=O)C5=O)cc3)CC2)c(F)c1 [Compound 2, (S)-4-(4-(4-(((2-(2,6-dioxopiperidin-3-yl)-1-oxoisoindolin-4-yl)oxy)methyl)benzyl)piperazin-1-yl)-3-fluorobenzonitrile]
- IC50 (OPM2 cells; OPM-2, cells overexpressing stabilized Ikaros mutants (Ikaros-Q146H or Ikaros-G151A), read-out: concentration at which cells had their proliferation inhibited by 50%): > 100 nM
- IC50 (OPM2 cells; OPM-2, overexpressing Aiolos Q147H, read-out: Inhibition of Proliferation of OPM2 Cells IC50): 0.06 nM
- IC50 (OPM2 cells; OPM-2, overexpressing Aiolos, read-out: Inhibition of Proliferation of OPM2 Cells IC50): 0.08 nM
- IC50 (OPM2 cells; OPM-2, overexpressing Ikaros-G151A, read-out: Inhibition of Proliferation of OPM2 Cells IC50): > 100 nM
- IC50 (OPM2 cells; OPM-2, overexpressing Ikaros-Q146H, read-out: Inhibition of Proliferation of OPM2 Cells IC50): > 100 nM
- IC50 (OPM2 cells; OPM-2, overexpressing Ikaros, read-out: Inhibition of Proliferation of OPM2 Cells IC50): 0.13 nM
- IC50 (OPM2 cells; OPM-2, overexpressing ZFP91-Q400H, read-out: Inhibition of Proliferation of OPM2 Cells IC50): 0.08 nM
- increase of the 50% inhibitory concentration relative to the parental cells (OPM2 cells; cells overexpressing stabilized Ikaros mutants): more than 200 fold
- peak IL-2 production above the vehicle control (IL-2; 24 hours): 5.5 fold
- EC50 (IL-2; Homo sapiens, PBMC, 72 h, read-out: IL-2 secretion, mean half-maximal effective concentration (EC50)): 0.014 nM
- Compound 2 concentration at peak IL-2 response (IL-2; in combination with 10 nM dexamethasone): 10 pM
- IL-2 induction above the vehicle control (IL-2; in combination with 10 nM dexamethasone, 4 donors, 72 hours): at least 10 fold
- IL-2 induction (IL-2; in combination with 100 nM dexamethasone): little induction of IL-2 above baseline
- sensitivity of cell lines with acquired resistance and low CRBN [1]: sensitive
- anti-proliferative activity ([1]; DF15R cell line, lacks CRBN expression): little anti-proliferative activity
- response to treatment [2]: VGPR and PR
- lowest concentration promoting robust degradation of Ikaros and Aiolos (Ikaros and Aiolos [3]): 1 nM
- expression level of Aiolos and Ikaros, as well as ZFP91 (Aiolos, Ikaros, ZFP91): significantly decreased
- enhancement of killing, IC50 of single MM culture versus immune and tumor cell co-culture (NCI-H929 cells): ~7000 fold
- degradation of Ikaros or Aiolos (Ikaros and Aiolos [4]; DF15R cells, no detectable CRBN): did not show any degradation
- degradation of Ikaros and Aiolos after reintroduction of CRBN (Ikaros and Aiolos [4]; DF15R-human CRBN WT cells): reactivated
- biomarker expression in the tumor compartment (IHC) [5]: induced degradation of Aiolos, Ikaros, and ZFP91
- IC50 (H929-1051): 0.2 nM

Source: US12510533B2, “Methods for treating multiple myeloma and the use of companion biomarkers for 4-(4-(4-(((2-(2,6-dioxopiperidin-3-yl)-1-oxoisoindolin-4-yl)oxy)methyl)benzyl)piperazin-1-yl)-3-fluorobenzonitrile” (Celgene Corporation, priority 2018, dated 2025)
